Where only a bound is given, the exact number is not on record here.

Holding throughout (assay type): cell-based
One experiment has as its system Calu-1 cells. In words: Anti-proliferation (viability) of NSCLC Calu-1 cells, 3 days (Table 7, FIG. 2B). The conditions noted are these: Homo sapiens, 72 h; Calu-1 cells, 3 days, 10-point serial dilution; read-out: GI IC50 in Calu-1. Put shortly: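 Cells were exposed to heterobifunctional compounds across a 10-point serial dilution, for 3 days with Calu-1 and 6 days with T47D. A negative control was included that keeps the DDB1 ligand and linker but carries a modified warhead that impairs CDK4 binding.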

For a further experiment, the system named is T47D cells. Briefly: Anti-proliferation (viability) of ER+ breast cancer T47D cells, 6 days (Table 7, FIG. 2B). As to conditions: Homo sapiens, 144 h; T47D cells, 6 days, 10-point serial dilution; read-out: GI IC50 in T47D. As to the method:
To evaluate anti-proliferation activities of heterobifunctional compounds, NSCLC Calu-1 or ER+ breast cancer T47D cells were treated with selected heterobifunctional compounds following a 10-point serial dilution for 3 or 6 days, respectively.
To verify that heterobifunctional compound-mediated degradation is dependent on the binding to CDK4-cyclin D complex, a negative control compound, CPD-143, which is derived from active heterobifunctional compound CPD-10 was designed. CPD-143 bears the same DDB1 ligand and linker as CPD-10 but with a modified warhead to impair the binding of the control compound to CDK4.

For a further experiment, the system named is MCF7 cells. Briefly: Anti-proliferation (viability) of MCF7 cells (Table 7, FIG. 2B). The conditions noted are these: Homo sapiens, MCF7, MCF7 cells, 3-6 days, 10-point serial dilution; read-out: GI IC50 in MCF-7.
For the next experiment, the target named is CDK4 (Homo sapiens, UniProt P11802+Q16531). In words: CDK4 percentage degradation in Calu-1 cells (Table 6). Set-up: Cells that express cyclin D1-3 and CDK4/6 proteins were treated with heterobifunctional compounds; endogenous in cells; host or cells: Calu-1. As to conditions: 16 hours; for inhibition at 0.04 µM: 40 nM; for inhibition at 0.2 µM: 200 nM. Put shortly:
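Percentage degradation of Cyclin D1 and CDK4 derived from densitometry of ECL Western blots on lysates of Calu-1 cells. Treatment was 16 h with compound at either 40 nM or 200 nM.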

Sequence of CDK4 (P11802 2-303 limits assumed): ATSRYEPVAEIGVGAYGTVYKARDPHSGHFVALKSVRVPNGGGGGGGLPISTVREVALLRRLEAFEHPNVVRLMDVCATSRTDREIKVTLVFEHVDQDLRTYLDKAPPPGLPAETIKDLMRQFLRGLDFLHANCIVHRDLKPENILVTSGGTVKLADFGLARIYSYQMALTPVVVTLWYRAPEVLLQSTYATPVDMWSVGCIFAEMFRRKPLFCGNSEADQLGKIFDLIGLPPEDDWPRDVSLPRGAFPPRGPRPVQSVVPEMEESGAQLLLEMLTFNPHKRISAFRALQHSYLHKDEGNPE
Sequence of CDK4 (P24385 whole entry partner): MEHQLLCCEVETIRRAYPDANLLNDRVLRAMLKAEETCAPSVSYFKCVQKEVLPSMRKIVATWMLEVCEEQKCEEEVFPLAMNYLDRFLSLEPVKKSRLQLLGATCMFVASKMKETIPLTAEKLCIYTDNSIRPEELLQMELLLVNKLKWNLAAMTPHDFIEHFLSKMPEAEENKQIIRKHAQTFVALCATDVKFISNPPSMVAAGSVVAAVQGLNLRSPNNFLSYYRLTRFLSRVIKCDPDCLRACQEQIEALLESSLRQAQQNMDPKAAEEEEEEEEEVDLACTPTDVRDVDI
Sequence of CDK4 (Q16531 2-1140 limits assumed): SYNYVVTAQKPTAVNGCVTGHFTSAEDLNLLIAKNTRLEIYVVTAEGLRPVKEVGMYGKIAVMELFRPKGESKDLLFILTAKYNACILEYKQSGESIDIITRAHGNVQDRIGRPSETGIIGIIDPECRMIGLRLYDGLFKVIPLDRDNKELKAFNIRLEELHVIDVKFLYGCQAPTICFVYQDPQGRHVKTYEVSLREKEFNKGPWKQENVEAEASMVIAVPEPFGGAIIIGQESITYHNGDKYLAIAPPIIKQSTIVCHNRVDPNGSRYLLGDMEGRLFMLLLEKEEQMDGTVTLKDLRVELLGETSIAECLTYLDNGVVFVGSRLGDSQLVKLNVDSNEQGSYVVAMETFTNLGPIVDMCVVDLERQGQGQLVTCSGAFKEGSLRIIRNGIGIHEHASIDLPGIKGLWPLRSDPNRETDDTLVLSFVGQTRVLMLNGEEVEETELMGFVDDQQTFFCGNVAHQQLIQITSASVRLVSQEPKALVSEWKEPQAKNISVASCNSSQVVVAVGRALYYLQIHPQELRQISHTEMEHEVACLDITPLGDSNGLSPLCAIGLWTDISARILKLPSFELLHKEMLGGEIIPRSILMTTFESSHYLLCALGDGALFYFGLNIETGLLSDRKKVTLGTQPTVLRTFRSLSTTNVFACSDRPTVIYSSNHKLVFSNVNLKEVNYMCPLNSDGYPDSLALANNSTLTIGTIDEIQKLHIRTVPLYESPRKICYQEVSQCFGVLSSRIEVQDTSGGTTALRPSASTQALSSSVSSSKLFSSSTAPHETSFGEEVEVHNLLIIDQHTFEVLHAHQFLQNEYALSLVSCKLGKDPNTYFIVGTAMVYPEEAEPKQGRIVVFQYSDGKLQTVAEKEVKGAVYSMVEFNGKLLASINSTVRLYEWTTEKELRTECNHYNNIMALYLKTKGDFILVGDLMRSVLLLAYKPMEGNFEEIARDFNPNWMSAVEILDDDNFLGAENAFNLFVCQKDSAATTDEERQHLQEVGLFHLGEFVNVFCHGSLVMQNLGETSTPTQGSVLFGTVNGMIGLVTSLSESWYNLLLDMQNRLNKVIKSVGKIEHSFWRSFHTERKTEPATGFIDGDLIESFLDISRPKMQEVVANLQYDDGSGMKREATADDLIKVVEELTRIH

For orientation: IC50 means the concentration needed to halve the response being measured. A word on the inhibition: it is the share of the control response that was lost under treatment. Read a high inhibition as a strong effect. `CNc1ccc(C(=O)Nc2cn(C)c(C3CC3)n2)c(NC2CC3(CC(NC(=O)CN4CCN(c5ccc(Nc6ncc7c(C)c(C(C)=O)c(=O)n(C8CCCC8)c7n6)nc5)CC4)C3)C2)n1` (centres unmarked) [CPD-135, 2-((6-(2-(4-(6-((6-Acetyl-8-cyclopentyl-5-methyl-7-oxo-7,8-dihydropyrido[2,3-d]pyrimidin-2-yl)amino)pyridin-3-yl)piperazin-1-yl)acetamido)spiro[3.3]heptan-2-yl)amino)-N-(2-cyclopropyl-1-methyl-1H-imidazol-4-yl)-6-(methylamino)nicotinamide]: the IC50 in the experiment with Calu-1 cells is 10 to 50 nM; with T47D cells, at least 100 nM; in the experiment on MCF7 cells, under 50 nM. In addition, the inhibition at 0.04 µM at CDK4 lay in the range of 30 to 50%. For the same molecule, the inhibition at 0.2 µM against CDK4 lay in the range of 50 to 80%.
For `CNc1ccc(C(=O)Nc2cccc(C)n2)c(NC2CC3(CC(NC(=O)CN4CCN(c5ccc(Nc6ncc7c(C)c(C(C)=O)c(=O)n(C8CCCC8)c7n6)nc5)CC4)C3)C2)n1` (centres unmarked) [CPD-75, 2-((6-(2-(4-(6-((6-Acetyl-8-cyclopentyl-5-methyl-7-oxo-7,8-dihydropyrido[2,3-d]pyrimidin-2-yl)amino)pyridin-3-yl)piperazin-1-yl)acetamido)spiro[3.3]heptan-2-yl)amino)-6-(methylamino)-N-(6-methylpyridin-2-yl)nicotinamide], the figures for the 50% inhibitory concentration (IC50) in the experiment on Calu-1 cells and in the experiment on T47D cells were 10 to 50 nM and at most 50 nM, respectively. For the same molecule, the inhibition at 0.04 µM on CDK4 lay within 30 to 50%. Further, the inhibition at 0.2 µM against CDK4 lay in the range of 50 to 80%.
Consider `CNc1ccc(C(=O)Nc2ccc(N(C)C)nn2)c(NC2CC3(CC(CNC(=O)N4CCN(c5ccc(Nc6ncc7c(C)c(C(C)=O)c(=O)n(C8CCCC8)c7n6)nc5)CC4)C3)C2)n1` (centres unmarked) [CPD-81, 4-(6-((6-Acetyl-8-cyclopentyl-5-methyl-7-oxo-7,8-dihydropyrido[2,3-d]pyrimidin-2-yl)amino)pyridin-3-yl)-N-((6-((3-((6-(dimethylamino)pyridazin-3-yl)carbamoyl)-6-(methylamino)pyridin-2-yl)amino)spiro[3.3]heptan-2-yl)methyl)piperazine-1-carboxamide], for which the half-maximal inhibitory concentration (IC50) in the experiment on Calu-1 cells lay within 10 to 50 nM. For the same molecule, in the experiment on T47D cells, the IC50 lay in the range of 50 to 100 nM. At CDK4, this molecule had an inhibition at 0.04 µM of 30 to 50% and an inhibition at 0.2 µM of 30 to 50%.
Turning to `CNc1ccc(C(=O)Nc2ccc(N(C)C)nn2)c(NC2CC(CNC(=O)CCN3CCN(c4ccc(Nc5ncc6c(C)c(C(C)=O)c(=O)n(C7CCCC7)c6n5)nc4)CC3)C2)n1` (centres unmarked) [CPD-80, 2-((3-((3-(4-(6-((6-Acetyl-8-cyclopentyl-5-methyl-7-oxo-7,8-dihydropyrido[2,3-d]pyrimidin-2-yl)amino)pyridin-3-yl)piperazin-1-yl)propanamido)methyl)cyclobutyl)amino)-N-(6-(dimethylamino)pyridazin-3-yl)-6-(methylamino)nicotinamide], the IC50 with Calu-1 cells was at most 10 nM. Moreover, in the experiment with T47D cells, the IC50 was at most 50 nM. On CDK4, this molecule registered an inhibition at 0.04 µM of 50 to 80% and an inhibition at 0.2 µM of 50 to 80%.
In the case of `[2H]C([2H])([2H])Nc1ccc(C(=O)Nc2ccc(N(C)C)nn2)c(NCCCCCNC(=O)CN2CCN(c3ccc(Nc4ncc5c(C)c(C(C)=O)c(=O)n(C6CCCC6)c5n4)nc3)CC2)n1` [CPD-66, 2-((5-(2-(4-(6-((6-Acetyl-8-cyclopentyl-5-methyl-7-oxo-7,8-dihydropyrido[2,3-d]pyrimidin-2-yl)amino)pyridin-3-yl)piperazin-1-yl)acetamido)pentyl)amino)-N-(6-(dimethylamino)pyridazin-3-yl)-6-((methyl-d3)amino)nicotinamide], the values for the IC50 with Calu-1 cells, with T47D cells and with MCF7 cells were at most 10 nM, 50 to 100 nM and over 100 nM, respectively. For the same molecule, at CDK4, the inhibition at 0.04 µM is 50 to 80%. This molecule had an inhibition at 0.2 µM on CDK4 of 50 to 80%.
Turning to `CC(=O)c1c(C)c2cnc(Nc3ccc(N4CCN(CC(=O)NCCCCCNc5nc(NC(C)(C)C)ccc5C(=O)Nc5ccc(N(C)C)nn5)CC4)cn3)nc2n(C2CCCC2)c1=O` [CPD-85, 2-((5-(2-(4-(6-((6-Acetyl-8-cyclopentyl-5-methyl-7-oxo-7,8-dihydropyrido[2,3-d]pyrimidin-2-yl)amino)pyridin-3-yl)piperazin-1-yl)acetamido)pentyl)amino)-6-(tert-butylamino)-N-(6-(dimethylamino)pyridazin-3-yl)nicotinamide], the figures for the 50% inhibitory concentration (IC50) with Calu-1 cells and with T47D cells were at most 10 nM and 50 to 100 nM, respectively. Also, the inhibition at 0.04 µM against CDK4 was under 30%. For the same molecule, at CDK4, the inhibition at 0.2 µM is 50 to 80%.
For `CNc1ccc(C(=O)Nc2ccc(N(C)C)nn2)c(NC2CC(CCNC(=O)N3CCN(c4ccc(Nc5ncc6c(C)c(C(C)=O)c(=O)n(C7CCCC7)c6n5)nc4)CC3)C2)n1` (centres unmarked) [CPD-35, 4-(6-((6-Acetyl-8-cyclopentyl-5-methyl-7-oxo-7,8-dihydropyrido[2,3-d]pyrimidin-2-yl)amino)pyridin-3-yl)-N-(2-(3-((3-((6-(dimethylamino)pyridazin-3-yl)carbamoyl)-6-(methylamino)pyridin-2-yl)amino)cyclobutyl)ethyl)piperazine-1-carboxamide], the 50% inhibitory concentration (IC50) with Calu-1 cells is 10 to 50 nM. Besides, the IC50 in the experiment with T47D cells is 50 to 100 nM. Besides, at CDK4, the inhibition at 0.04 µM was in the range of 50 to 80% and the inhibition at 0.2 µM fell in the range of 50 to 80%.
Regarding `CC(=O)c1c(C)c2cnc(Nc3ccc(N4CCN(CC(=O)NC5CC6(C5)CC(Nc5nc(NC(C)C)ccc5C(=O)Nc5cccc(C7CC7)n5)C6)CC4)cn3)nc2n(C2CCCC2)c1=O` (centres unmarked) [CPD-139, 2-((6-(2-(4-(6-((6-Acetyl-8-cyclopentyl-5-methyl-7-oxo-7,8-dihydropyrido[2,3-d]pyrimidin-2-yl)amino)pyridin-3-yl)piperazin-1-yl)acetamido)spiro[3.3]heptan-2-yl)amino)-N-(6-cyclopropylpyridin-2-yl)-6-(isopropylamino)nicotinamide], the IC50 in the experiment on Calu-1 cells was at most 10 nM. Also, the 50% inhibitory concentration (IC50) with T47D cells was at most 50 nM. Further, on CDK4, the inhibition at 0.04 µM lay in the range of 50 to 80% and the inhibition at 0.2 µM lay within 50 to 80%.
As to `CNc1ccc(C(=O)Nc2ccc(C)c(C3CC3)n2)c(NC2CC3(CC(NC(=O)CN4CCN(c5ccc(Nc6ncc7c(C)c(C(C)=O)c(=O)n(C8CCCC8)c7n6)nc5)CC4)C3)C2)n1` (centres unmarked) [CPD-57, 2-((6-(2-(4-(6-((6-Acetyl-8-cyclopentyl-5-methyl-7-oxo-7,8-dihydropyrido[2,3-d]pyrimidin-2-yl)amino)pyridin-3-yl)piperazin-1-yl)acetamido)spiro[3.3]heptan-2-yl)amino)-N-(6-cyclopropyl-5-methylpyridin-2-yl)-6-(methylamino)nicotinamide], in the experiment with Calu-1 cells, the half-inhibitory concentration (IC50) fell in the range of 10 to 50 nM. In addition, the half-inhibitory concentration (IC50) in the experiment with T47D cells is 50 to 100 nM. At CDK4, this molecule gave an inhibition at 0.04 µM of 30 to 50% and an inhibition at 0.2 µM of over 80%.
Take `CC(=O)c1c(C)c2cnc(Nc3ccc(N4CCN(CC(=O)NCCCCCNc5nc(C#N)ccc5C(=O)Nc5ccc(N(C)C)nn5)CC4)cn3)nc2n(C2CCCC2)c1=O` [CPD-28, 2-((5-(2-(4-(6-((6-Acetyl-8-cyclopentyl-5-methyl-7-oxo-7,8-dihydropyrido[2,3-d]pyrimidin-2-yl)amino)pyridin-3-yl)piperazin-1-yl)acetamido)pentyl)amino)-6-cyano-N-(6-(dimethylamino)pyridazin-3-yl)nicotinamide]: the 50% inhibitory concentration (IC50) with Calu-1 cells was 10 to 50 nM; in the experiment with T47D cells it was at most 50 nM. Besides, the inhibition at 0.04 µM on CDK4 lay in the range of 50 to 80%. In addition, at CDK4, the inhibition at 0.2 µM fell in the range of 50 to 80%.
In the case of `CNc1ccc(C(=O)Nc2ccc(N(C)C)nn2)c(NCCCCNC(=O)CCN2CCN(c3ccc(Nc4ncc5c(C)c(C(C)=O)c(=O)n(C6CCCC6)c5n4)nc3)CC2)n1` [CPD-37, 2-((4-(3-(4-(6-((6-acetyl-8-cyclopentyl-5-methyl-7-oxo-7,8-dihydropyrido[2,3-d]pyrimidin-2-yl)amino)pyridin-3-yl)piperazin-1-yl)propanamido)butyl)amino)-N-(6-(dimethylamino)pyridazin-3-yl)-6-(methylamino)nicotinamide], the half-maximal inhibitory concentration (IC50) in the experiment on Calu-1 cells was 10 to 50 nM. In addition, the concentration for half-maximal inhibition (IC50) in the experiment on T47D cells is at least 100 nM. In addition, at CDK4, the inhibition at 0.04 µM fell in the range of 50 to 80% and the inhibition at 0.2 µM is 50 to 80%.
Regarding `CNc1ccc(C(=O)Nc2ccc(N(C)C)nn2)c(NC(C)CCCCNC(=O)CN2CCN(c3ccc(Nc4ncc5c(C)c(C(C)=O)c(=O)n(C6CCCC6)c5n4)nc3)CC2)n1` (centres unmarked) [CPD-29, 2-((6-(2-(4-(6-((6-Acetyl-8-cyclopentyl-5-methyl-7-oxo-7,8-dihydropyrido[2,3-d]pyrimidin-2-yl)amino)pyridin-3-yl)piperazin-1-yl)acetamido)hexan-2-yl)amino)-N-(6-(dimethylamino)pyridazin-3-yl)-6-(methylamino)nicotinamide], in the experiment on Calu-1 cells, the IC50 was 10 to 50 nM. The half-maximal inhibitory concentration (IC50) in the experiment with T47D cells was in the range of 50 to 100 nM. On CDK4, this molecule came in with an inhibition at 0.04 µM of 50 to 80% and an inhibition at 0.2 µM of over 80%.

The record behind these values is patent US20260297081A1, “COMPOUNDS AND METHODS OF TREATING CANCERS” (Cullgen Inc., priority 2023, published 2026).
